Experimental data: US12290596B2, “Compositions and methods for the treatment of opioid overdose” (priority 2021, dated 2025)

Assay: Three-treatment crossover pharmacokinetics of IN nalmefene, three dosing regimens (Example 13)
Conditions: human, plasma, […]; for concentration at 2.5 min: time 0.0416
[1] = other: intranasal (IN) spray, 3 mg, Mean, T1 (3 mg IN, one spray in one nostril)
[2] = other: intranasal (IN) spray, 3 mg, Median, T1 (3 mg IN, one spray in one nostril)
[3] = other: intranasal (IN) spray, 3 mg, Min, T1 (3 mg IN, one spray in one nostril)
[4] = other: intranasal, 3 mg, Mean, T1 (3 mg IN, one spray in one nostril)
[5] = other: intranasal, 3 mg, Min, T1 (3 mg IN, one spray in one nostril)

What does the source list for `C=C1CC[C@@]2(O)[C@H]3Cc4ccc(O)c5c4[C@@]2(CCN3CC2CC2)[C@H]1O5` [Nalmefene, 17-cyclopropylmethyl-4,5α-epoxy-6-methylenemorphinan-3,14-diol]?
concentration at 2 h (other: intranasal (IN) spray, 3 mg, Max, T1 (3 mg IN, one spray in one nostril)): 7.64 ng/mL; concentration at 3 h [1]: 3.7 ng/mL; concentration at 4 h [1]: 2.99 ng/mL; concentration at 6 h (other: intranasal (IN) spray, 3 mg, Mean, T1 (3 mg IN, one spray in one nostril), time 6.00): 2.06 ng/mL; concentration at 8 h (other: intranasal (IN) spray, 3 mg, Mean, T1 (3 mg IN, one spray in one nostril), time 8.00): 1.44 ng/mL; concentration at 12 h (other: intranasal (IN) spray, 3 mg, Mean, T1 (3 mg IN, one spray in one nostril), time 12.0): 0.992 ng/mL; concentration at 18 h (other: intranasal (IN) spray, 3 mg, Mean, T1 (3 mg IN, one spray in one nostril), time 18.0): 0.591 ng/mL; concentration at 24 h (other: intranasal (IN) spray, 3 mg, Mean, T1 (3 mg IN, one spray in one nostril), time 24.0): 0.412 ng/mL; concentration at 48 h (other: intranasal (IN) spray, 3 mg, Mean, T1 (3 mg IN, one spray in one nostril), time 48.0): 0.0942 ng/mL; concentration at 2.5 min [2]: 0.362 ng/mL; concentration at […] (other: intranasal (IN) spray, 3 mg, Median, T1 (3 mg IN, one spray in one nostril), time 0.0833): 1.29 ng/mL; concentration at […] (other: intranasal (IN) spray, 3 mg, Median, T1 (3 mg IN, one spray in one nostril), time 0.125): 3.65 ng/mL; concentration at […] (other: intranasal (IN) spray, 3 mg, Median, T1 (3 mg IN, one spray in one nostril), time 0.166): 6.28 ng/mL; concentration at […] (other: intranasal (IN) spray, 3 mg, Median, T1 (3 mg IN, one spray in one nostril), time 0.250): 8.04 ng/mL; concentration at […] (other: intranasal (IN) spray, 3 mg, Median, T1 (3 mg IN, one spray in one nostril), time 0.333): 8.07 ng/mL; concentration at […] (other: intranasal (IN) spray, 3 mg, Median, T1 (3 mg IN, one spray in one nostril), time 0.750): 5.85 ng/mL; concentration at 2 h [2]: 4.62 ng/mL; concentration at 3 h [3]: 2.16 ng/mL; concentration at 4 h [3]: 1.97 ng/mL; concentration at 0 h (other: intranasal, 3 mg, Mean, T1 (3 mg IN, one spray in one nostril), time 0.00): 0 ng/mL; concentration at 2.5 min [4]: 0.353 ng/mL; concentration at […] (other: intranasal, 3 mg, Mean, T1 (3 mg IN, one spray in one nostril), time 0.0833): 2.38 ng/mL; concentration at […] (other: intranasal, 3 mg, Mean, T1 (3 mg IN, one spray in one nostril), time 0.125): 5.1 ng/mL; concentration at […] (other: intranasal, 3 mg, Mean, T1 (3 mg IN, one spray in one nostril), time 0.166): 7.78 ng/mL; concentration at […] (other: intranasal, 3 mg, Mean, T1 (3 mg IN, one spray in one nostril), time 0.250): 9.17 ng/mL; concentration at […] (other: intranasal, 3 mg, Mean, T1 (3 mg IN, one spray in one nostril), time 0.333): 8.79 ng/mL; concentration at […] (other: intranasal, 3 mg, Mean, T1 (3 mg IN, one spray in one nostril), time 0.750): 5.99 ng/mL; concentration at 1 h [4]: 5.47 ng/mL; concentration at 2 h [4]: 4.99 ng/mL; concentration at 0 h (other: intranasal, 3 mg, Median, T1 (3 mg IN, one spray in one nostril), time 0.00): 0 ng/mL; concentration at 1 h (other: intranasal, 3 mg, Median, T1 (3 mg IN, one spray in one nostril)): 5.11 ng/mL; concentration at 0 h (other: intranasal, 3 mg, Min, T1 (3 mg IN, one spray in one nostril), time 0.00): 0 ng/mL; concentration at 2.5 min [5]: 0 ng/mL; concentration at […] (other: intranasal, 3 mg, Min, T1 (3 mg IN, one spray in one nostril), time 0.0833): 0.319 ng/mL; concentration at […] (other: intranasal, 3 mg, Min, T1 (3 mg IN, one spray in one nostril), time 0.125): 0.642 ng/mL; concentration at […] (other: intranasal, 3 mg, Min, T1 (3 mg IN, one spray in one nostril), time 0.166): 1.09 ng/mL; concentration at […] (other: intranasal, 3 mg, Min, T1 (3 mg IN, one spray in one nostril), time 0.250): 1.88 ng/mL; concentration at […] (other: intranasal, 3 mg, Min, T1 (3 mg IN, one spray in one nostril), time 0.333): 1.97 ng/mL; concentration at […] (other: intranasal, 3 mg, Min, T1 (3 mg IN, one spray in one nostril), time 0.750): 2.52 ng/mL; concentration at 2 h [5]: 3.28 ng/mL; concentration at 0 h (other: intranasal, 6 mg, individual subject, Time 0.00, T3: 6 mg nalmefene HCl IN, two 0.1 mL sprays in one nostril): 0 ng/mL
